Source: ChEMBL document CHEMBL3507680, “University of Dundee, Gates Library screen for HepG2 cell viability”

Test: Human HepG2 cell viability assay in 384 well format
Format: toxicity, cell-based
Set-up: dose 125 nL, time 70.5 hour; cytotoxicity at 70.5 h: concentration not given beside the values
Conditions: HepG2 cells, read-out: Inhibition

Structure (SMILES) | cytotoxicity at 70.5 h [%]
COc1ccc(C(NCc2cccc(O)c2)C2CC2)cc1 (configuration not stated) | 16.8
CC(C)OCCN1CCN(c2ccc(CN(C)C)cn2)CC1 | 8.47
CN(C)C(=O)N1CCN(C(=O)c2ccc(Cl)c(Cl)c2)C(C)(C)C1 | 0.62
COc1ccc(CN(C)CC(=O)Nc2ccc3[nH]c(=O)[nH]c3c2)cc1F | -8.14
CN(CC(=O)c1ccc2[nH]c(=O)[nH]c2c1)Cc1ccc2c(c1)OCO2 | -3.13
COc1ccc(CN(C)CC(=O)c2ccc3[nH]c(=O)[nH]c3c2)cc1F | -6.51
O=C(c1ccc(F)cc1F)N1CCN(C(=O)C2CCCCC2)CC1 | -5.82
Cc1cn2nc(Sc3nnc(C(C)C)n3C)sc2n1 | -10.9
CCc1nnc(Sc2nn3cc(C)nc3s2)n1C | -2.38
CCOc1ccc(Cl)cc1NC(=O)N1CCC(n2cncn2)CC1 | -7.8
CCOc1ccc(NC(=O)N2CCC(n3cncn3)CC2)cc1Cl | 19.7
O=C(c1occc1CN1C(=O)Cc2ccccc21)N1CCCCCC1 | -3.4
O=C(c1cc(F)ccc1O)N1CCN(C2CCSC2)CC1 (configuration not stated) | -8.37
O=C(c1occc1CN1C(=O)Cc2ccccc21)N1CC(O)C1 | -1.51
Cc1cc(C)cc(C(=O)N2CCN(C(=O)N(C)C)CC2(C)C)c1 | -0.125
Cc1noc(CN2CCC(Cc3ccc(F)cc3)CC2)n1 | -9.61
CCN(C)C(=O)CCN(C)Cc1cnc(C)s1 | -0.298
COc1ccc(C2CCCN2Cc2cnn(C)c2)cc1 (configuration not stated) | -9.31
CC(SCC(=O)N(C)CC(=O)NC1CC1)c1ccccc1F (configuration not stated) | -5.51
COCCN1CCCN(C(=O)c2oc(C)nc2C)CC1 | -7.73
CC(=O)NC(C(=O)N(C)Cc1nnc2n1CCC2)C(C)C (configuration not stated) | 22.2
Cc1cnn(CC(C)NCC(=O)NCCc2cccs2)c1 (configuration not stated) | 10.8
Brc1cccc(C2(CNCc3cc[nH]c3)CCOCC2)c1 | 17.6
Cc1cc(C(C)NC(=O)c2ccc(O)nc2)c(C)o1 (configuration not stated) | 2.4

Structure (SMILES) | cytotoxicity at 70.5 h [%]
Cc1oc(-c2cccs2)nc1C(=O)N(C)C1(C#N)CCC1 | -17.6
CC(C(=O)N(C)Cc1nnc2n1CCC2)S(C)(=O)=O (configuration not stated) | -1.23
CC(O)CN1CCC(CNCc2ccc(C#N)cc2)CC1 (configuration not stated) | 0.277
CC(O)CN1CCC(CN(C)Cc2ccc(C(N)=O)cc2)CC1 (configuration not stated) | -9.95
CCC(C)CS(=O)(=O)NC(=O)C1CC1 (configuration not stated) | -5.06
OCCn1nnnc1Cc1ccc(Br)cc1 | -6.7
CCc1cnc(N2CCN(Cc3ccno3)CC2)s1 | -1.37
Cc1ccc(CN(C)C)cc1NC(=O)C1CC=CC1 | -3.31
Cc1cc(C(C)NC(=O)c2c[nH]c(=O)c(Cl)c2)c(C)o1 (configuration not stated) | -1.21
CC(O)CN1CCC(CN(C)Cc2cccc(C#N)c2)CC1 (configuration not stated) | -2.33
CC(O)CN1CCC(CN(C)Cc2ccc(C#N)cc2F)CC1 (configuration not stated) | 6.92
CC(C)OCCCNC(=O)N(C)C(C)c1ccc(-n2cncn2)cc1 (configuration not stated) | -6.64
CC(CNC(=O)NCc1ccsc1)CC1(C)OCCO1 (configuration not stated) | -8.79
Cc1cccnc1CSCCCNS(C)(=O)=O | -5.33
CC(O)CN1CCC(CN(C)Cc2ccc(C#N)cc2)CC1 (configuration not stated) | -11
Clc1nc2ccccn2c1CNCC1CN(C2CC2)CCO1 (configuration not stated) | 4.07
N#Cc1ccc(CNc2cnn(CCN3CCOCC3)c2)cc1 | 42.1
Cc1cc(C(=O)O)c2c(Br)cccc2n1 | -13.5
Cc1noc(C)c1CN(C)C(=O)CCn1c(=O)n(C)c2ccccc21 | -12.2
CN(C(=O)c1ccc(S(=O)(=O)NC(C)(C)C)cc1)C1(C#N)CCC1 | -17.4
Cc1cc2ccccc2n1CC(=O)Nc1ccnn1CC1CCOC1 (configuration not stated) | -14.7
CCC(C)NS(=O)(=O)c1ccc(C(=O)N(C)C2(C#N)CCC2)cc1 (configuration not stated) | -23.6
O=C(COc1ccc2c(c1)CCC2)N1CCCC1c1ccc[nH]1 (configuration not stated) | -23.1
Cc1noc(C)c1CN(C)Cn1c(=O)n(C)c2ccccc21 | -6.45

Structure (SMILES) | cytotoxicity at 70.5 h [%]
NC(=O)C1CCN(C(=O)Cn2nc(-c3ccccc3)oc2=O)C1 (configuration not stated) | -5.69
CCc1nc(CN2CCN(c3ncnc4cc(F)ccc34)CC2)no1 | 24.8
CC(C)C1CN(C(=O)c2ccc(C(N)=O)cc2)CCS1 (configuration not stated) | -6
O=C(NC1(c2cccc(F)c2)CCOCC1)c1cc[nH]n1 | -4.33
CC(C)C1CN(C(=O)c2nccnc2N)CCS1 (configuration not stated) | -4.8
CC(C)(C)OC(=O)N1CCCc2ccc(NCc3ncc[nH]3)cc21 | 9.84
O=C(NC1CCCC1)NC1CCC(C(=O)N2CCSCC2)CC1 (configuration not stated) | -9.08
Cc1cccc(S(=O)(=O)NCC(C)N2CCN(C)CC2)c1Cl (configuration not stated) | -1.95
O=C(C(CNCc1ccsc1)c1ccccc1)N1CCOCC1 (configuration not stated) | -2.8
COCCc1noc(CNC2CCCN(c3cccnn3)C2)n1 (configuration not stated) | 11
Cc1n[nH]cc1CNc1ccc2c(c1)CN(C(=O)OC(C)(C)C)CC2 | -6.16
CN(Cc1ccc(N2CCCCC2)cc1)Cc1noc(C(C)(C)C)n1 | -9.02
CC(O)CN1CCN(Cc2csc(-c3ncccn3)n2)CC1 (configuration not stated) | 5.33
Cc1n[nH]c(C2CN(C(=O)CCc3ccco3)CCO2)n1 (configuration not stated) | 9.82
COc1cc(C(=O)N(Cc2ccc(F)cc2)C2CC2)cc2c1OCCO2 | 17.8
Cc1ccsc1CN(C)C(=O)Cn1nc(-c2ccc(F)cc2)oc1=O | 4.04
CN(Cc1ccc(F)cc1)C(=O)Cn1nc(-c2ccc(F)cc2)oc1=O | 26.3
CN(Cc1ccccc1Br)C(=O)Cn1nc(-c2ccc(F)cc2)oc1=O | -8.06
O=C(COc1cccc2c1CCC2=O)NCCSc1ccccc1 | 3.81
COc1ccc(CS(=O)(=O)CC(=O)NCC2CC2)cc1F | -3.56
O=C(Cc1c[nH]c2ccccc12)N1CCN(C(=O)c2ccoc2)CC1 | 1.6
CC(CN1CCOCC1)NC(=O)NCc1ccc(Cl)s1 (configuration not stated) | -7.44
CCOCCCC(=O)NCc1cn2cc(Br)ccc2n1 | -3.96
COc1ccc(-c2nnc(SCC(=O)NCC(C)C)[nH]2)c(OC)c1 | -7.35

Structure (SMILES) | cytotoxicity at 70.5 h [%]
CCc1cc(NCc2ccccc2CN2CCCC2)n2ncnc2n1 | 29.1
CCc1cc(NCC(O)CN2CCCCC2)n2ncnc2n1 (configuration not stated) | 1.39
COC(=O)[C@H](C)NC(=O)c1cc(-c2cccc(Cl)c2)no1 | 2
CS(=O)(=O)N1CCc2c(cccc2NC(=O)CC(F)(F)F)C1 | -1.76
Cc1c(C(=O)NCC(C)C)nnn1-c1cccc2c1CCN(C)C2 | 1.85
CC(NC(=O)c1cc(-c2cccc(Cl)c2)no1)C(=O)N1CCCC1 (configuration not stated) | -10.6
Cc1ccc(OCCC(=O)NC2CCc3nccn3C2)cc1 (configuration not stated) | 0.164
Cc1ccc(OCCC(=O)NC2CCc3nc(C)cn3C2)cc1 (configuration not stated) | 2.29
Cc1cc(NC(=O)C(c2cccc(F)c2)N2CCOCC2)ccn1 (configuration not stated) | 13.3
Cc1n[nH]c(C2CN(C(=O)c3cc(Cl)c[nH]3)CCO2)n1 (configuration not stated) | -3.9
CC(=O)Nc1cccc(OCCNC(=O)N(C)Cc2ccco2)c1 | 0.512
Cc1nc(C)n(CC2CCCN(Cc3nnc(-c4ccco4)o3)C2)n1 (configuration not stated) | -2.38
NC(=O)CCN1CCC(C(=O)c2cc(F)ccc2F)CC1 | 15
CC1CCN(CCNC(=O)c2ccccc2N2CCOCC2)CC1 | -7.45
O=C(NCCc1ccccn1)NC1CCN(c2ncccn2)CC1 | -8
COc1ccc(CN(C)C(=O)CCC(=O)c2cccs2)c(OC)c1OC | -3.38
COC(=O)C(C)(C)NC(=O)C1CC(=O)N(C2CCCC2)C1 (configuration not stated) | -9.13
COc1ccc(C(=O)Nc2cnn(CC(=O)NC3CCCC3)c2)c(O)c1 | -1.19
Cc1cc(C)nc(N2CCN(C(=O)c3cc(Cl)c[nH]3)CC2)n1 | -9.1
Cc1ccccc1C(=O)Nc1cnn(CC(=O)NC2CCCC2)c1 | -3.04
Cc1cc(N2CCN(C(=O)c3cc(Cl)c[nH]3)CC2)nc(N)n1 | -6.18
Cc1nn(C(C)C)c(C)c1NC(=O)c1ccncc1 | -5.05
CCN(CC)c1ccc(NS(=O)(=O)c2cncc(F)c2)cn1 | -0.536
CCCNC(=O)CNc1cc(C(=O)N2CCSCC2)ccc1C | -6

Structure (SMILES) | cytotoxicity at 70.5 h [%]
CCSc1ccc(C(=O)Nc2c(C)nn(C(C)C)c2C)cn1 | 14.1
Cc1ccc(C(=O)N2CCSCC2)cc1NC(=O)NCCO | -4.73
COCCN(C)C(=O)c1ccc(OC)cc1O | -2.43
CS(=O)(=O)c1ccc(OCCNCc2cccc(F)c2)cc1 | -2.08
NC(=O)C1CN(C(=O)Nc2cc(Cl)cc(Cl)c2)CCO1 (configuration not stated) | -3.67
Cc1ccc(CNCCOc2ccc(S(C)(=O)=O)cc2)cc1 | 11
N#CCSCCCN1CCCN(C(=O)c2ccccc2)CC1 | -8.59
CN1CC(C(=O)NC(C)(C)C)CC1=O (configuration not stated) | -9.06
COC(=O)C(C)(C)NC(=O)C1CC(=O)N(C)C1 (configuration not stated) | -7.02
O=C(CN1CCCCCCC1=O)NCc1ccccn1 | -1.3
Cc1nc(C)c(C(=O)N2CCC(Nc3cccnc3)CC2)s1 | -8.38
CN(Cc1nnc(C2CC2)n1C)C1CCN(CCc2cccs2)C1 (configuration not stated) | -6.98
CN(CCN1CCOCC1)C(=O)CCc1cccc(Cl)c1 | 20.6
CSc1ccc(C(CN)N2CCc3sccc3C2)cc1 (configuration not stated) | 24.3
CN(Cc1ccc(Cl)c(Cl)c1)C(=O)CNC(N)=O | 0.00328
Cc1cc(C(=O)N2CC[C@H]3C[C@H](c4ccncn4)O[C@@H]3C2)no1 | 12.7
Fc1cccc(-c2c[nH]c(C3CCCN3)n2)c1 (configuration not stated) | 0.492
CCOCC1CN(Cc2cnn(C)c2)Cc2nn(CC3CC3)cc21 (configuration not stated) | -10.4
Cn1cc(N2CC3(COCCN(Cc4ccccn4)C3)OCC2=O)cn1 (configuration not stated) | -11.1
O=C1CO[C@@H]2CN(Cc3ccncc3)C[C@H]2N1Cc1ccncc1 | -7.94
CN(Cc1ccncc1)C1COC2(CCN(Cc3ccccn3)CC2)C1 (configuration not stated) | -7
